# US8877731B2, “Azido nucleosides and nucleotide analogs” (Alios Biopharma, Inc., priority 2010, dated 2014)
# Read-outs that look alike come from different tables or passages of the source.
# Assays:
# Type in all cases: cell-based
# RSV A2 = assay: RSV RT-PCR based assay
# Method: RT-PCR based assays were performed in HEp-2 cells (ATCC: CCL-23) at a concentration of 20000 cell/well were plated in 96 well plates and incubated overnight. Each of the test compounds were ⅓ serially diluted and dosed to HEp-2 cells in duplicates. The highest final concentration for each compound was 100 uM. After 24 hour compound pre-incubation, RSV A2 (ATCC: VR-1540) at MOI of 0.1 was added. Two wells per compound were set aside as uninfected, untreated cell controls (CC), and four wells per test compound received virus only as a control for virus replication (VC). The assay was stopped 4 days after virus infection and conditioned media was removed for viral RNA isolation. The quantities of the RSV virus were measured by real-time PCR using a set of RSV specific primers and probe. The data was analyzed with Prism software with EC50 defined as drug concentration that reduced the viral load 50% from the viral control (VC).
# (§1) Compounds of Formula (I) and Formula (II) are active in the assay as noted in Tables 2 and 3, where ‘A’ indicates an EC50<1 μM, ‘B’ indicates an EC50 of >1 μM and <10 μM, ‘C’ indicates an EC50>10 μM and <100 μM, and ‘D’ indicates an EC50>100 μM.
# RSV Long strain = assay: RSV CPE reduction assay
# Method: CPE reduction assays were performed as described by Sidwell and Huffman et al., Appl Microbiol. (1971) 22(5):797-801 with slight modifications. HEp-2 cells (ATCC) at a concentration of 6000 cell/well were infected with RSV Long strain (ATCC) at a multiplicity of infection (m.o.i.) of 0.01, and each of the test compounds were provided to duplicate wells at final concentrations starting from 100 μM using ⅓ stepwise dilutions. For each compound, two wells were set aside as uninfected, untreated cell controls (CC), and two wells per test compound received virus only as a control for virus replication (VC). […] At the end of the incubation, 20 μl of cell counting kit-8 reagent (CCK-8, Dojindo Molecular Technologies, Inc.) were added to each well. After 4 hour incubation, the absorbance was measured in each well according to manufacturer's instruction, and the 50% effective concentration (EC50) was calculated by using regression analysis, based on the mean O.D. at each concentration of compound.
# as §1
# Influenza A/WSN/33 virus = assay: Influenza antiviral assay (real-time PCR); conditions: A549 cells, 24 hour pre-incubation, 72 hours, read-out: Percent Inhibition
# [1] = human respiratory syncytial virus, RT-PCR assay, HEp-2 cells, 24 hour compound pre-incubation, RSV A2 at MOI 0.1, 4 days after infection, viral load, read-out: EC50
# [2] = human respiratory syncytial virus, 144 h, CPE assay, HEp-2 cells infected with RSV Long strain, m.o.i. 0.01, 6 days, CCK-8 readout, read-out: EC50
# [3] = RT-PCR assay, HEp-2 cells, 24 hour compound pre-incubation, RSV A2 at MOI 0.1, 4 days after infection, viral load, read-out: EC50
# [4] = CPE assay, HEp-2 cells infected with RSV Long strain, m.o.i. 0.01, 6 days, CCK-8 readout, read-out: EC50
# [5] = human respiratory syncytial virus, HEp-2
# [6] = human respiratory syncytial virus, HEp-2, 144 h
Compound,EC50 (RSV A2; [1]),EC50 (RSV Long strain; [2]),other results
"[N-]=[N+]=N[C@]1(CO)O[C@@H](n2ccc(N)nc2=O)[C@H](F)[C@@H]1O [Compound 2, 4′-azido-2′-deoxy-2′-fluorocytidine]",< 1 µM,< 1 µM,inhibition at 30 µM (Influenza A/WSN/33 virus): 99.8%
"CC(C)OC(=O)[C@H](C)NP(=O)(OC[C@@]1(N=[N+]=[N-])O[C@@H](n2ccc(N)nc2=O)[C@H](O)[C@@H]1O)Oc1ccccc1 (stereo partly drawn) [Compound 22, 4′-azidocytidine 5′-(O-phenyl-N—(S)-1-(isopropoxycarbonyl)ethyl)phosphoramidate]",< 1 µM,< 1 µM,–
"CC(C)OC(=O)[C@H](C)NP(=O)(OC[C@@]1(N=[N+]=[N-])O[C@@H](n2ccc(N)nc2=O)[C@H](F)[C@@H]1O)Oc1ccccc1 (stereo partly drawn) [Compound 23, 4′-azido-2′-deoxy-2′-fluorocytidine 5′-(O-phenyl-N—(S)-1-(isopropoxycarbonyl)ethyl)phosphoramidate]",1 to 10 µM,1 to 10 µM,–
"CC(C)OC(=O)[C@H](C)NP(=O)(OC[C@@]1(N=[N+]=[N-])O[C@@H](n2ccc(=O)[nH]c2=O)[C@H](F)[C@@H]1O)Oc1ccccc1 (stereo partly drawn) [Compound 24, 4′-azido-2′-deoxy-2′-fluorouridine 5′-(O-phenyl-N—(S)-1-(isopropoxycarbonyl)ethyl)phosphoramidate]",> 100 µM,> 100 µM,–
"[N-]=[N+]=N[C@]1(CO)O[C@@H](n2cnc3nc(N)[nH]c(=O)c32)[C@H](O)[C@@H]1O [Compound 25, 2-amino-7-(4-azido-β-D-ribofuranos-1-yl)-1H-purin-6(7H)-one]",> 100 µM,> 100 µM,–
"CC(C)OC(=O)[C@H](C)NP(=O)(OC[C@@]1(N=[N+]=[N-])O[C@@H](n2ccc(=O)[nH]c2=O)[C@@H](F)[C@@H]1O)Oc1ccccc1 (stereo partly drawn) [Compound 26, 4′-azido-2′-deoxy-2′-fluorouarabinoridine 5′-(O-phenyl-N—(S)-1-(isopropoxycarbonyl)ethyl)phosphoramidate]",> 100 µM,> 100 µM,–
"C[C@H](NP(=O)(OC[C@@]1(N=[N+]=[N-])O[C@@H](n2cnc3c(=O)[nH]c(N)nc32)[C@H](O)[C@@H]1O)Oc1ccccc1)C(=O)OC1CCCCC1 (stereo partly drawn) [Compound 29, 4′-azidoguanosine 5′-[O-phenyl-N—((S)-cyclohexoxycarbonyleth-1-yl))phosphoramidate]",< 1 µM,< 1 µM,–
"[N-]=[N+]=N[C@]1(CO)O[C@@H](n2cnc3c(=O)[nH]c(N)nc32)C(F)(F)[C@@H]1O [Compound 30, 4′-azido-2′-deoxy-2′,2′-difluoroguanosine]",> 100 µM,–,inhibition at 30 µM (Influenza A/WSN/33 virus): 99.9%
"C[C@H](NP(=O)(OCC1(N=[N+]=[N-])OC(n2cnc3c(=O)[nH]c(N)nc32)C(F)C1O)Oc1ccccc1)C(=O)OC1CCCCC1 (stereo partly drawn) [Compound 31, 4′-azido-2′-deoxy-2′-fluoroguanosine 5′-(O-phenyl-N—((S)-cyclohexoxycarbonyleth-1-yl))phosphoramidate]",–,–,EC50 (RSV A2; [3]): < 1 µM; EC50 (RSV Long strain; [4]): < 1 µM
"CC(C)OC(=O)[C@H](C)NP(=O)(N[C@@H](C)C(=O)OC(C)C)OC[C@@]1(N=[N+]=[N-])O[C@@H](n2ccc(N)nc2=O)C(F)(F)[C@@H]1O [Compound 33, 4′-azido-2′-deoxy-2′-difluorocytidine 5′-(N,N′-bis((S)-1-(isopropoxycarbonyl)ethyl))phosphordiamidate]",< 1 µM,< 1 µM,–
"CC(C)OC(=O)[C@H](C)NP(=O)(OC[C@@]1(N=[N+]=[N-])O[C@@H](n2ccc(N)nc2=O)[C@@H](O)[C@@H]1O)Oc1ccccc1 (stereo partly drawn) [Compound 34, 4′-azidoarabinocytidine 5′-(O-phenyl-N—(S)-1-(isopropoxycarbonyl)ethyl)phosphoramidate]",> 100 µM,> 100 µM,–
"CC(C)OC(=O)[C@H](C)NP(=O)(OC[C@@]1(N=[N+]=[N-])O[C@@H](n2ccc(=O)[nH]c2=O)[C@@H](O)[C@@H]1O)Oc1ccccc1 (stereo partly drawn) [Compound 35, 4′-azidoarabinouridine 5′-(O-phenyl-N—(S)-1-(isopropoxycarbonyl)ethyl)phosphoramidate]",< 1 µM,< 1 µM,–
"CC(C)OC(=O)[C@H](C)NP(=O)(OC[C@@]1(N=[N+]=[N-])O[C@@H](n2ccc(=O)[nH]c2=O)[C@@H](C)[C@@H]1O)Oc1ccccc1 (stereo partly drawn) [Compound 36, 4′-azido-2′-deoxy-2′-methylarabinouridine 5′-(O-phenyl-N—(S)-1-(isopropoxycarbonyl)ethyl)phosphoramidate]",> 100 µM,> 100 µM,–
"CC(C)OC(=O)[C@H](C)NP(=O)(OC[C@@]1(N=[N+]=[N-])O[C@@H](n2cnc3c(N)ncnc32)[C@H](F)[C@@H]1O)Oc1ccccc1 (stereo partly drawn) [Compound 37, 4′-azido-2′-deoxy-2′-fluoroadenosine 5′-(O-phenyl-N—(S)-1-(isopropoxycarbonyl)ethyl)phosphoramidate]",1 to 10 µM,1 to 10 µM,–
"C[C@]1(F)[C@H](n2ccc(N)nc2=O)O[C@@](CO)(N=[N+]=[N-])[C@H]1O [Compound 38, 4′-azido-2′-deoxy-2′-α-fluoro-2′-β-methylcytidine]",> 100 µM,> 100 µM,–
"CC(C)OC(=O)[C@H](C)NP(=O)(N[C@@H](C)C(=O)OC(C)C)OC[C@@]1(N=[N+]=[N-])O[C@@H](n2ccc(=O)[nH]c2=O)C(F)(F)[C@@H]1O [Compound 39, 4′-azido-2′-deoxy-2′-difluorouridine 5′-(N,N-bis((S)-isopropoxycarbonyleth-1-yl))phosphordiamidate]",> 100 µM,> 100 µM,–
CC(C)OC(=O)[C@H](C)NP(=O)(N[C@@H](C)C(=O)OC(C)C)OC[C@@]1(N=[N+]=[N-])O[C@@H](n2ccc(=O)[nH]c2=O)[C@H](F)[C@@H]1O [Compound 40],> 100 µM,> 100 µM,–
"COP1(=S)OC[C@@]2(N=[N+]=[N-])O[C@@H](n3ccc(=O)[nH]c3=O)[C@H](F)[C@@H]2O1 (some centres unmarked) [Compound 41, 4′-azido-2′-deoxy-2′-fluorouridine 3′,5′-cyclic thiophosphoric acid methyl ester]",–,–,EC50 (RSV A2; [5]): > 100 µM; EC50 (RSV Long strain; [6]): > 100 µM
"[N-]=[N+]=N[C@]1(CO)O[C@@H](n2cnc(C(N)=O)n2)[C@H](O)[C@@H]1O [Compound 43, 4′-azidoribavirin]",10 to 100 µM,10 to 100 µM,–
"CC(C)OC(=O)[C@H](C)NP(=O)(N[C@@H](C)C(=O)OC(C)C)OC[C@@]1(N=[N+]=[N-])O[C@@H](n2ccc(=O)[nH]c2=O)[C@H](O)[C@@H]1O [Compound 44, 4′-azidouridine 5′-(N,N′-bis((S)-1-(isopropoxycarbonyl)ethyl))phosphorodiamidate]",> 100 µM,> 100 µM,–
"CC(C)OP1(=S)OC[C@@]2(N=[N+]=[N-])O[C@@H](n3ccc(=O)[nH]c3=O)[C@H](F)[C@@H]2O1 (some centres unmarked) [Compound 45, 4′-azido-2′-deoxy-2′-fluorouridine 3′,5′-cyclic thiophosphoric acid isopropyl ester]",–,–,EC50 (RSV A2; [5]): > 100 µM; EC50 (RSV Long strain; [6]): > 100 µM
"CC(C)OP1(=S)OC[C@@]2(N=[N+]=[N-])O[C@@H](n3ccc(N)nc3=O)[C@H](F)[C@@H]2O1 (some centres unmarked) [Compound 46, 4′-azido-2′-deoxy-2′-fluorocytidine 3′,5′-cyclic thiophosphoric acid isopropyl ester]",–,–,EC50 (RSV A2; [5]): > 100 µM; EC50 (RSV Long strain; [6]): > 100 µM
"[N-]=[N+]=N[C@]1(CO)O[C@@H](n2cnc3c(=O)[nH]c(N)nc32)[C@@H](O)[C@@H]1O [Compound 47, 4′-azidoarabinoguanosine]",> 100 µM,> 100 µM,–
"COc1nc(N)nc2c1ncn2[C@@H]1O[C@@](CO)(N=[N+]=[N-])[C@@H](O)[C@H]1F [Compound 48, 2-amino-9-(4-aido-2-deoxy-2-fluoro-1-ribofuranosyl)-6-methoxypurine]",< 1 µM,1 to 10 µM,–
"COc1nc(N)nc2c1ncn2C1O[C@@](CO)(N=[N+]=[N-])[C@@H](O)[C@H]1F (some centres unmarked) [Compound 49, 2-amino-9-(4-aido-2-deoxy-2-fluoro-1-ribofuranosyl)-6-methoxypurine]",–,–,EC50 (RSV A2; [3]): > 100 µM; EC50 (RSV Long strain; [4]): > 100 µM
"C[C@]1(F)[C@H](n2ccc(=O)[nH]c2=O)O[C@@](CO)(N=[N+]=[N-])[C@H]1O [Compound 51, 4′-azido-2′-deoxy-2′-α-fluoro-2′-β-methyluridine]",> 100 µM,> 100 µM,–
